Experimental findings from patent US10519152B2, “Compounds and their use in treating cancer” (AstraZeneca AB, priority 2017, dated 2019) are described below.

For this assay, the target named is T1, Estrogen Receptor (ERα) in MCF-7 human ductal carcinoma breast cell line (Homo sapiens, UniProt P03372).
T1 construct: endogenous in cells; host or cells: MCF-7
T1 sequence (P03372 1-595): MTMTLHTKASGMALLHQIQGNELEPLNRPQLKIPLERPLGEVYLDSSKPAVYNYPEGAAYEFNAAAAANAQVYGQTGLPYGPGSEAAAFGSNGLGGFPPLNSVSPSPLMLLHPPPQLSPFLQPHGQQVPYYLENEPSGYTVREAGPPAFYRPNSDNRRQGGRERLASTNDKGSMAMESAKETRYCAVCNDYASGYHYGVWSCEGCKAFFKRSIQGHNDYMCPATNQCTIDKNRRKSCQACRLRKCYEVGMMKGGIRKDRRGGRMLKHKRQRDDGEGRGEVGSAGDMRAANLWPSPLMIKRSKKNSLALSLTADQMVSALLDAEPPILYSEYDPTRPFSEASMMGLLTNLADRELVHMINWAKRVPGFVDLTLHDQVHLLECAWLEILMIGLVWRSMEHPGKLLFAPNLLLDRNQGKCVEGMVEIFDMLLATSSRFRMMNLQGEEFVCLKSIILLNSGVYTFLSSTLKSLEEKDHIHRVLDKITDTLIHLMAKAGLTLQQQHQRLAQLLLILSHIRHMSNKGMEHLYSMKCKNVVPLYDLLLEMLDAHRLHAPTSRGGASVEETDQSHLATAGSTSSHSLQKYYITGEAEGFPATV
The experiment in a line: MCF-7 ER degradation assay (cell based immuno-fluorescence). The settings on record: MCF-7 cells; for ER degradation ≥ 90% at 0.3 μM: ER degradation by fulvestrant at 0.3 μM is defined as 100%; for DC50: 18-22 hours incubation, 50% reduction of ERα expression, single experiment or average of two or more, read-out: MCF-7 ER degradation IC50. In short, it runs like this:
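MCF-7 human ductal carcinoma breast cells were seeded at 3.75×10^4 cells per mL (40 μL per well) in 384 well plates with phenol red free DMEM containing 2 mM L-Glutamine and 5% (v/v) Charcoal/Dextran treated foetal calf serum. After overnight culture, compounds were acoustically dispensed, incubated 18-22 hours, then cells were formaldehyde-fixed and immunostained for ERα.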

SMILES strings stand for the structures.

`Cc1ncsc1-c1ccc([C@H](C)NC(=O)[C@@H]2C[C@@H](O)CN2C(=O)[C@@H](NC(=O)COCCCCOCCCOc2cc(F)c([C@@H]3c4[nH]c5ccccc5c4C[C@@H](C)N3CC(C)(C)F)c(F)c2)C(C)(C)C)cc1` [Example 154, (2S,4R)-1-((S)-2-(2-(4-(3-(3,5-Difluoro-4-((1R,3R)-2-(2-fluoro-2-methylpropyl)-3-methyl-2,3,4,9-tetrahydro-1H-pyrido[3,4-b]indol-1-yl)phenoxy)propoxy)butoxy)acetamido)-3,3-dimethylbutanoyl)-4-hydroxy-N—((S)-1-(4-(4-methylthiazol-5-yl)phenyl)ethyl)pyrrolidine-2-carboxamide]: the “ER degradation ≥ 90% at 0.3 μM” value is given as “•” and the DC50 worked out at 700 pM.

`Cc1ncsc1-c1ccc([C@H](C)NC(=O)[C@@H]2C[C@@H](O)CN2C(=O)[C@@H](NC(=O)COCCOCCCCCOc2cc(F)c([C@@H]3c4[nH]c5ccccc5c4C[C@@H](C)N3CC(C)(C)F)c(F)c2)C(C)(C)C)cc1` [Example 156, (2S,4R)-1-((S)-2-(2-(2-((5-(3,5-Difluoro-4-((1R,3R)-2-(2-fluoro-2-methylpropyl)-3-methyl-2,3,4,9-tetrahydro-1H-pyrido[3,4-b]indol-1-yl)phenoxy)pentyl)oxy)ethoxy)acetamido)-3,3-dimethylbutanoyl)-4-hydroxy-N—((S)-1-(4-(4-methylthiazol-5-yl)phenyl)ethyl)pyrrolidine-2-carboxamide]: the “ER degradation ≥ 90% at 0.3 μM” value is listed as “••” and the DC50 was determined as 1500 pM.

On to `Cc1ncsc1-c1ccc([C@H](C)NC(=O)[C@@H]2C[C@@H](O)CN2C(=O)[C@@H](NC(=O)COCCCCCOCCOc2cc(F)c([C@@H]3c4[nH]c5ccccc5c4C[C@@H](C)N3CC(C)(C)F)c(F)c2)C(C)(C)C)cc1` [Example 157, (2S,4R)-1-((S)-2-(2-((5-(2-(3,5-Difluoro-4-((1R,3R)-2-(2-fluoro-2-methylpropyl)-3-methyl-2,3,4,9-tetrahydro-1H-pyrido[3,4-b]indol-1-yl)phenoxy)ethoxy)pentyl)oxy)acetamido)-3,3-dimethylbutanoyl)-4-hydroxy-N—((S)-1-(4-(4-methylthiazol-5-yl)phenyl)ethyl)pyrrolidine-2-carboxamide], for which the “ER degradation ≥ 90% at 0.3 μM” value is on record as “••” and the DC50 was 400 pM.

In the case of `Cc1ncsc1-c1ccc(CNC(=O)[C@@H]2C[C@@H](O)CN2C(=O)[C@@H](NC(=O)COCCc2ccc(COc3cc(F)c([C@@H]4c5[nH]c6ccccc6c5C[C@@H](C)N4CC(C)(C)F)c(F)c3)nc2)C(C)(C)C)cc1` [Example 158, (2S,4R)-1-((S)-2-(2-(2-(6-((3,5-Difluoro-4-((1R,3R)-2-(2-fluoro-2-methylpropyl)-3-methyl-2,3,4,9-tetrahydro-1H-pyrido[3,4-b]indol-1-yl)phenoxy)methyl)pyridin-3-yl)ethoxy)acetamido)-3,3-dimethylbutanoyl)-4-hydroxy-N-(4-(4-methylthiazol-5-yl)benzyl)pyrrolidine-2-carboxamide], the “ER degradation ≥ 90% at 0.3 μM” value is “•” and the DC50 was 800 pM.

`Cc1ncsc1-c1ccc([C@H](C)NC(=O)[C@@H]2C[C@@H](O)CN2C(=O)[C@@H](NC(=O)COCCc2ccc(COc3cc(F)c([C@@H]4c5[nH]c6ccccc6c5C[C@@H](C)N4CC(C)(C)F)c(F)c3)nc2)C(C)(C)C)cc1` [Example 159, (2S,4R)-1-((S)-2-(2-(2-(6-((3,5-Difluoro-4-((1R,3R)-2-(2-fluoro-2-methylpropyl)-3-methyl-2,3,4,9-tetrahydro-1H-pyrido[3,4-b]indol-1-yl)phenoxy)methyl)pyridin-3-yl)ethoxy)acetamido)-3,3-dimethylbutanoyl)-4-hydroxy-N—((S)-1-(4-(4-methylthiazol-5-yl)phenyl)ethyl)pyrrolidine-2-carboxamide]: the “ER degradation ≥ 90% at 0.3 μM” value is “••” and the DC50 is 500 pM.

Regarding `Cc1ncsc1-c1ccc(CNC(=O)[C@@H]2C[C@@H](O)CN2C(=O)[C@@H](NC(=O)CCCOc2ccc(COc3cc(F)c([C@@H]4c5[nH]c6ccccc6c5C[C@@H](C)N4CC(C)(C)F)c(F)c3)nc2)C(C)(C)C)cc1` [Example 161, (2S,4R)-1-((S)-2-(4-((6-((3,5-Difluoro-4-((1R,3R)-2-(2-fluoro-2-methylpropyl)-3-methyl-2,3,4,9-tetrahydro-1H-pyrido[3,4-b]indol-1-yl)phenoxy)methyl)pyridin-3-yl)oxy)butanamido)-3,3-dimethylbutanoyl)-4-hydroxy-N-(4-(4-methylthiazol-5-yl)benzyl)pyrrolidine-2-carboxamide], the “ER degradation ≥ 90% at 0.3 μM” value is “•” and the DC50 amounted to 1200 pM.

In the case of `Cc1ncsc1-c1ccc(CNC(=O)[C@@H]2C[C@@H](O)CN2C(=O)[C@@H](NC(=O)CCCOc2cccc(COc3cc(F)c([C@@H]4c5[nH]c6ccccc6c5C[C@@H](C)N4CC(C)(C)F)c(F)c3)n2)C(C)(C)C)cc1` [Example 162, (2S,4R)-1-((S)-2-(4-((6-((3,5-Difluoro-4-((1R,3R)-2-(2-fluoro-2-methylpropyl)-3-methyl-2,3,4,9-tetrahydro-1H-pyrido[3,4-b]indol-1-yl)phenoxy)methyl)pyridin-2-yl)oxy)butanamido)-3,3-dimethylbutanoyl)-4-hydroxy-N-(4-(4-methylthiazol-5-yl)benzyl)pyrrolidine-2-carboxamide], the “ER degradation ≥ 90% at 0.3 μM” value was “•” and the DC50 was found to be 1800 pM.

`Cc1ncsc1-c1ccc(CNC(=O)[C@@H]2C[C@@H](O)CN2C(=O)[C@@H](NC(=O)COCCOCCCCCOc2cnc([C@@H]3c4[nH]c5ccccc5c4C[C@@H](C)N3CC(C)(F)F)c(F)c2)C(C)(C)C)cc1` [Example 164, (2S,4R)-1-((S)-2-(2-(2-((5-((6-((1S,3R)-2-(2,2-Difluoropropyl)-3-methyl-2,3,4,9-tetrahydro-1H-pyrido[3,4-b]indol-1-yl)-5-fluoropyridin-3-yl)oxy)pentyl)oxy)ethoxy)acetamido)-3,3-dimethylbutanoyl)-4-hydroxy-N-(4-(4-methylthiazol-5-yl)benzyl)pyrrolidine-2-carboxamide]: the “ER degradation ≥ 90% at 0.3 μM” value is given as “••” and the DC50 was found to be 4200 pM.

In the case of `Cc1ncsc1-c1ccc(CNC(=O)[C@@H]2C[C@@H](O)CN2C(=O)[C@@H](NC(=O)COCCOCCCCCOc2cnc([C@@H]3c4[nH]c5ccccc5c4C[C@@H](C)N3CC(F)(F)F)c(F)c2)C(C)(C)C)cc1` [Example 165, (2S,4R)-1-((S)-2-(2-(2-((5-((5-Fluoro-6-((1S,3R)-3-methyl-2-(2,2,2-trifluoroethyl)-2,3,4,9-tetrahydro-1H-pyrido[3,4-b]indol-1-yl)pyridin-3-yl)oxy)pentyl)oxy)ethoxy)acetamido)-3,3-dimethylbutanoyl)-4-hydroxy-N-(4-(4-methylthiazol-5-yl)benzyl)pyrrolidine-2-carboxamide], the “ER degradation ≥ 90% at 0.3 μM” value was “••” and the DC50 came to 4400 pM.

As for `Cc1ncsc1-c1ccc(CNC(=O)[C@@H]2C[C@@H](O)CN2C(=O)[C@@H](NC(=O)COCCOCCCCCOc2cc(F)c([C@@H]3c4[nH]c5ccccc5c4C[C@@H](C)N3CC(C)(F)F)c(F)c2)C(C)(C)C)cc1` [Example 166, (2S,4R)-1-((S)-2-(2-(2-((5-(4-((1R,3R)-2-(2,2-Difluoropropyl)-3-methyl-2,3,4,9-tetrahydro-1H-pyrido[3,4-b]indol-1-yl)-3,5-difluorophenoxy)pentyl)oxy)ethoxy)acetamido)-3,3-dimethylbutanoyl)-4-hydroxy-N-(4-(4-methylthiazol-5-yl)benzyl)pyrrolidine-2-carboxamide], the “ER degradation ≥ 90% at 0.3 μM” value is “••” and the DC50 is 800 pM.

In the case of `Cc1ncsc1-c1ccc(CNC(=O)[C@@H]2C[C@@H](O)CN2C(=O)[C@@H](NC(=O)COCCOCCCCCOc2cc(F)c([C@@H]3c4[nH]c5ccccc5c4C[C@@H](C)N3CC(F)F)c(F)c2)C(C)(C)C)cc1` [Example 167, (2S,4R)-1-((S)-2-(2-(2-((5-(4-((1R,3R)-2-(2,2-Difluoroethyl)-3-methyl-2,3,4,9-tetrahydro-1H-pyrido[3,4-b]indol-1-yl)-3,5-difluorophenoxy)pentyl)oxy)ethoxy)acetamido)-3,3-dimethylbutanoyl)-4-hydroxy-N-(4-(4-methylthiazol-5-yl)benzyl)pyrrolidine-2-carboxamide], the “ER degradation ≥ 90% at 0.3 μM” value is recorded as “••” and the DC50 was determined as 600 pM.
